Measured values: paper PMC12264943, “Identification of New Human P2X7 Antagonists Using Ligand- and Structure-Based Virtual Screening” (Journal of Chemical Information and Modeling, 2025)
pIC50: −log10 of the molar value.

Legend:
Assay type in all cases: cell-based
[1] = system: HEK-293 WT cells; assay: Cytotoxicity assay (CellTiter Blue); settings: 10 μM, 24 h, nontransfected HEK-293 cells
Description: HEK-293 WT cells were seeded at 4 × 10^4 cells/well in 96-well plates precoated with poly-L-lysine. After 24 h, the cells were washed with DPBS and treated with test compounds (10 μM) in 2% FBS-containing medium for 24 h. After this, the medium containing the test compounds was replaced with 20% CellTiter-Blue reagent (Promega) in 2% FBS medium. After a 2-h incubation, fluorescence (excitation: […]; emission: […]) was measured using a Clariostar plate reader. Data were normalized to untreated control cells (100%) and wells without cells (0%).
5 Concentration inhibition curve determination for compound 2g (A) and evaluation of cytotoxicity for compounds 2, 9, and 2g. […] The data on the graph represent the mean from three independent experiments (n = 3 replicates per experiment). (B) The cytotoxicity of the compounds was evaluated on nontransfected HEK-293 cells using a CellTiter Blue assay. The cells were incubated for 24 h with the compounds at 10 μM. The fluorescent signal obtained from vehicle-treated cells (0.1% DMSO) was used to normalize the data to 100%, and the one obtained from wells not containing cells (BLANK) was set as 0%. The data are the combination of three biological replicates (error bars represent the SEM (n = 3)) analyzed by one-way ANOVA using Dunnet’s function (P**** < 0.0001; **< 0.002; * < 0.02; ns, non significant).
The potential cytotoxicity of the hit compounds identified, 2, 9, and 2g, was assessed at 10 μM by CellTiter Blue assay using nontransfected HEK-293 cells (Figure B).

[2] = biological target: T1, hP2X7 (Homo sapiens, UniProt Q99572); assay: YO-PRO 1 dye uptake assay, HEK-293 cells stably transfected with hP2X7
T1 construct: expressed in transfected cells; host or cells: HEK-293, stably transfected (gift of E. Adinolfi's group, Ferrara University)
T1 sequence (Q99572 1-595): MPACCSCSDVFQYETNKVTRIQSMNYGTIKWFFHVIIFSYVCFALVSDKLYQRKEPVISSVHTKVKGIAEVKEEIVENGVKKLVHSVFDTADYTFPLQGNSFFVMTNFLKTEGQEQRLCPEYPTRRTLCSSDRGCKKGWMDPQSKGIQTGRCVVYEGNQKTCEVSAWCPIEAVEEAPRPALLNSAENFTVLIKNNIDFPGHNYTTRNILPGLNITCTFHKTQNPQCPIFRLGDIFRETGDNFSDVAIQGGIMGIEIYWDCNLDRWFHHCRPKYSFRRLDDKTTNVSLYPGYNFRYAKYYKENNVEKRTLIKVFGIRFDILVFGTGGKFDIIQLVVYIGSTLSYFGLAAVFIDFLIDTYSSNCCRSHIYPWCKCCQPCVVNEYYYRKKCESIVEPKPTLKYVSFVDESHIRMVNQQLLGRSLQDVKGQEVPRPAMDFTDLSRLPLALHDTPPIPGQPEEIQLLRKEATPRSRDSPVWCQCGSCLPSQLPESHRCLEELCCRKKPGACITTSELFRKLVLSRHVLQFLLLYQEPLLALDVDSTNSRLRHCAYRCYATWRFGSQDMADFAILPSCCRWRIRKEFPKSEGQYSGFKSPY
Description: (§1) Astrocytoma 1321 N1 (established by Dr. Gaia Pasqualetto) and HEK-293 (kindly gifted by E. Adinolfi’s group, Ferrara University) both stably transfected with hP2X7, were used to assess the activity of the small molecules selected from the VS. Cells were maintained in DMEM:F12 (PanBiotech) supplemented with 10% FBS, 1% pen-strep, and 150 μg/mL G418 (PanBiotech).
Astrocytoma 1321 N1 cells (2–2.5 × 10^4 cells/well) and HEK-293 cells (4–5 × 10^4 cells/well) expressing hP2X7 were seeded in poly-L-lysine-coated 96-well plates (Sarstedt) 24 h before the experiment. YO-PRO 1 dye was prepared at 5 μM in extracellular solution with low divalent cations (ECS-LD) buffer (147 mM NaCl, 10 mM HEPES, 13 mM glucose, 0.2 mM CaCl2, 2 mM KCl, pH 7.4) and added to cells after washing them with Dulbecco’s phosphate- buffered saline (DPBS) (PanBiotech) and incubated for 20 min at 37 °C. ATP-induced dye uptake, mediated by hP2X7 activation, was monitored using a Clariostar plate reader (excitation: 485 nm; emission: 538 nm) for 30 cycles (75–150 s/cycle), after recording the baseline for five cycles. hP2X7 activation was quantified at cycle 10 by calculating the fluorescence intensity (FI) ratio (Δ(Fcycle 10–F cycle 1)/cycle time).
Compounds 2 and 9, identified as hits, were further evaluated for concentration-dependent inhibition (IC50) of hP2X7 activation in the YO-PRO 1 dye uptake assay using HEK-293 cells stably transfected with hP2X7 (unfortunately, at this point in the study, the stably transfected 1321N1 cells lost P2X7 expression, and we were unable to recover them from frozen aliquots), for which the ATP EC50 was determined to be approximately 1 mM (Supporting material Figure 4C). Seven concentrations (100 to 0.03 μM) were tested, but due to precipitation at 100 μM, the DMSO concentration was increased to 1%.
3 Inhibitory concentration response evaluation of compounds 2 and 9 and their groups highlighted for SAR. […] Compound activity was evaluated along a time of 20 min (75 s per cycle) after ATP addition (700 μM). The fluorescence intensity (FI) values of the first 10 cycles were considered for assessing their ability to inhibit hP2X7. The curves represent three biological replicates (n = 4 per replicate). Data were normalized by setting as 100% the FI recorded by hP2X7 HEK-293 cells incubated in 1% DMSO and stimulated by ATP, and as 0% the FI recorded by the same cells but treated with ECS-LD (assay buffer). (C) Highlighted areas of compound 2 considered for SAR study. R1 refers to the ethyl-benzyl group of the molecules, and R2 and R3 refer to the benzo-(1,3)-dioxol groups. (D) Highlighted areas of compound 9 considered for SAR study. We have defined the area highlighted in yellow and numbered as 1 as the “front” region of the molecule and the one colored in pink and named as 2 as the “back” region of the molecule. L highlights the urea and amide linkers of compounds 2 and 9, respectively.
(§2) 4 Evaluation of compound 2 and 9 analogue activity using YO-PRO 1 and MPR assays. The activity of compound 2 (A and B) and 9 (C and D) analogues was evaluated in YO-PRO 1 (A and C) and MPR (B and D) assays. The compounds were tested at 10 μM and preincubated for either 20 (YO-PRO 1) or 30 min (MPR). The baseline was recorded for 5 cycles before ATP treatment (1 mM). Fluorescence was recorded for 25 (YO-PRO 1) or 5 min (MPR). The data were normalized by setting as 100% for the fluorescence measured from hP2X7 HEK-293 cells incubated with vehicle (0.1% DMSO) and treated with 1 mM ATP and 0% for the fluorescence recorded by the cells not treated with ATP. The data shown correspond to three independent biological replicates (3 technical replicates per experiment; error bars represent the SEM from the mean values of each biological replicate (n = 3)). The statistical analysis was performed with one-way Anova using Dunnett’s function (P**** < 0.0001; P*** < 0.0003; P** < 0.002; P* < 0.02).

[3] = biological target: T1, hP2X7; assay: Membrane Potential Red (MPR) dye assay, HEK-293 cells stably transfected with hP2X7; settings: HEK293, 1 mM ATP, hP2X7 HEK-293
Description: as §1
Cells were plated as described for the YO-PRO 1 dye uptake assay. MPR dye (Molecular Devices) was prepared following the manufacturer’s protocol and diluted 1:10 in ECS-LD buffer. After washing with DPBS, cells were incubated with the dye for 30 min at 37 °C. Fluorescence changes (excitation: 525 nm; emission: 560 nm) were recorded using a Clariostar plate reader during ATP-induced membrane depolarization. Baseline fluorescence was recorded for 5 cycles, and ATP was added via an automated injector (10 μL). Membrane depolarization was quantified as the ratio of the maximal fluorescence change over baseline intensity (Δ(F max–F0)/F0)).
as §2

pIC50 ([2]; YO-PRO 1 dye uptake, hP2X7 HEK-293 cells, 100 to 0.03 μM, 1% DMSO, read-out: IC50, inhibition of hP2X7 activation): 5.88
reduction of hP2X7 activity ([2]; analogues at 10 μM, YO-PRO 1, 1 mM ATP, 0.1% DMSO): 80%
inhibition at 10 µM [3]: 70%
SMILES: O=C(Nc1ccc2c(c1)OCO2)NC(Cc1ccc(F)cc1)Cc1ccc(F)cc1 [Compound 2g]
reduction in cell viability [1]: ~10%
hP2X7 inhibition in YO-PRO 1 dye uptake, SAR ([2]; analogues at 10 μM, 1 mM ATP): retained potency comparable to that of the hit compound
